Measurements as given in patent publication US5443986A, “Enzymatic analysis using substrates that yield fluorescent precipitates” (Molecular Probes, Inc., priority 1993, dated 1995).

Tests used:
[1] = tested on: HEp-2 cells; assay: Enzyme-mediated immunohistochemical detection (SLE kit) on fixed HEp-2 cells; format: cell-based, human; conditions: 30 minute incubation, 100 mM MOPS pH 7.5, biotinylated alkaline phosphatase
Method: 1 ). Cells and Detection Kit. […] The kit includes slides containing wells of fixed HEp-2 cells (human epithelial cells) and a positive control consisting of anti-DNA antibodies isolated from humans with the disease. Normally, the slides are incubated with sera from patients and then probed with fluorescein-conjugated anti-human antibodies. Using this method, the nuclei of those cells that have been incubated with SLE-positive sera appear to have typical morphology that is identified by their green fluorescence using standard fluorescence microscopy whereas the negative controls have no fluorescence.
2). Sample Preparation. A four-step incubation protocol is used to prepare the slides. All reagents are diluted in 1% bovine serum albumin (BSA) in TRIS-buffered saline, pH 7.5 (TBS; 100 mM NaCl, 100 mM TRIS). Each incubation is 1/2 hour. Slides are washed three times with TBS between incubations. A typical procedure consists of the following steps:
1. The wells are incubated with either SLE-positive or -negative human sera (provided in the kit).
2. The wells are incubated with biotinylated goat anti-human ([…]).
3. The wells are incubated with streptavidin (50 μg/mL), a reagent that has four binding sites for biotin. Excess binding sites are available for binding the next reagent.
4. The wells are incubated with a biotinylated enzyme that will remove BLOCK from the subject substrates. […]

[2] = biological target: alkaline phosphatase (Bos taurus, UniProt P19111); format: biochemical; design: mature GPI-type homodimer; conditions: 0.1M TRIS pH 10.3, 50 mM NaCl, 10 mM MgCl2, 0.1 mM ZnCl2; double-reciprocal plot
Chain of alkaline phosphatase (P19111 20-506): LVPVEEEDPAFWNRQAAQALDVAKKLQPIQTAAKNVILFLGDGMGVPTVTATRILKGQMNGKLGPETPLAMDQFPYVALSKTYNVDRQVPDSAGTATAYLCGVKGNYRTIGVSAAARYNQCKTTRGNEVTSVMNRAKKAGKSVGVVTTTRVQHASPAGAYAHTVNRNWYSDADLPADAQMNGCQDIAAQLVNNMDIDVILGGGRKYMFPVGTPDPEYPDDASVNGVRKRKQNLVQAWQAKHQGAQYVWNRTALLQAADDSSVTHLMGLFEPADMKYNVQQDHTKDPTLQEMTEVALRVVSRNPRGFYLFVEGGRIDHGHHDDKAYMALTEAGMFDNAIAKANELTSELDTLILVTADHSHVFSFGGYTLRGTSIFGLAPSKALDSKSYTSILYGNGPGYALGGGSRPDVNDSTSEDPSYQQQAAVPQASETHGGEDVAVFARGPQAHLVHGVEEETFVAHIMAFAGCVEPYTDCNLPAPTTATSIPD
Method: As compared with other synthetic substrates, the fluorogenic precipitating substrates described in this invention normally have high enzymatic turnover rates and moderate affinities for the enzymes. Turnover rates of the substrates can be determined as in Example 10 and expressed as micromoles of product per minute per milligram protein (k2, in units of μmol·min^-1 ·mg^-1). The affinity of the substrate is determined by its dissociation constant, KM, in millimolar units. The enzymes can bind to and catalyze conversion of the soluble substrates into detectable reaction products that are apparently less soluble and will precipitate in aqueous solutions. The preferred detectable reaction products are fluorescent precipitates. The precipitation, however, and thus fluorescence, depends on the reaction product concentration or the initial substrate concentration used, as well as the ionization state of the product's phenol group. There are two parameters determining the precipitation, i.e. critical concentration (Mc) and pH dependence (pKa). A method for determination of these parameters is given in Example 11. Table 10 gives the relevant parameters for the enzymatic reaction and precipitation of quinazolinone-based alkaline phosphatase substrates.
4). Kinetic assay of some of the substrates. The specific activity (k2, in a unit of micromole per minute per milligram protein) and Michaelis constant (KM, in a unit of millimole) for hydrolysis of the substrates by the enzyme are listed in Table 10. All of the specific enzymatic reactions are made in the following buffers:
For alkaline phosphatase: 0.1M TRIS pH 10.3 containing 50 mM NaCl, 10 mM MgCl2 and 0.1 mM ZnCl2.
Because the kinetic assay involves variable amounts of precipitate with variable light scattering, measurement in the fluorometer as described above cannot be used here. Instead, a fluorescence plate reader with front-face measurement geometry such as the CytoFluor™ 2300 (Millipore, Bedford, Mass.) is preferred for quantitating the precipitate. The following protocol illustrates the kinetic assay.
4.1 ). In a 96-well plate, pipette 200 μL of a phosphatase substrate in the alkaline phosphatase reaction buffer with a final concentration of 2 to 6 mM, then add 50 μL 1 mg/mL alkaline phosphatase. […] Fluorescence of the precipitate is measured in the CytoFluor with appropriate sensitivity and excitation and emission settings as have been determined with the fluorometer. The fluorescence signal versus the amount of the precipitate is then established for each substrate.
4.2). […] Read the fluorescence of the resulting precipitate after 10 minutes reaction time and calculate the precipitate formation rate per minute by use of the determined fluorescence signal versus the amount of the precipitate. […]

O=c1[nH]c(-c2cc(Cl)ccc2OP(=O)(O)O)nc2ccc(Cl)cc12 [8e, Ammonium 2-(5'-chloro-2'-phosphoryloxyphenyl)-6-chloro-4-(3H)-quinazolinone]
staining of cells incubated with SLE-positive sera [1]: brightly fluorescent nuclei
staining of wells incubated with negative sera [1]: No signal is detected
k2 (specific activity, turnover rate) [2]: 618.60 µmol/min/mg
